{
  "source": "patent US6514992B1",
  "about": "“Caspases and apoptosis” (SmithKline Beecham Corporation, priority 1998, dated 2003)",
  "origin": "cited, not measured here",
  "test_system": "osteoclasts of murine bone marrow cultures",
  "settings": "murine bone marrow cultures grown for 6 days in vitro",
  "data": [
    {"substance": "TGF-β1: cytokine cited as inducing apoptosis in osteoclasts of murine bone marrow cultures", "values": [
      {"measurement": "apoptosis induced in osteoclasts", "value": "approx. 30%"}
    ]}
  ]
}
